Assays:
α4β2 nAChRs = conditions: read-out: IC50, displacement of [^3H]cytisine binding to α4β2 nAChRs; cited from earlier work
α7 nAChRs [1] = biological target: α7 nAChRs (Mus musculus, UniProt P49582); conditions: in vivo
Method: In the other group of mice, a blocking experiment to determine the α7 nAChRs-specific regional brain uptake of the tracers was carried out. Each tracer (2 MBq/0.055–0.096 nmol) was co-injected with each of the following blockers into mice, and 15 ([^11C]A-582941) or 30 ([^11C]A-844606) min later the mice were killed (n = 5) and the tissue uptake of ^11C was expressed as the %ID/g. […] Each blocker was dissolved in 1N HCl to 40 mg/ml and diluted up to 0.4 mg/ml with saline. The co-injected dose was 1 mg/kg. In the control mice the same amount of 0.01 N HCl in saline was co-injected.

α7 nAChRs [2] = conditions: read-out: IC50, displacement of [^3H]MLA binding; cited from earlier work

Sequence of α7 nAChRs (Mus musculus, UniProt P49582) (P49582 23-502): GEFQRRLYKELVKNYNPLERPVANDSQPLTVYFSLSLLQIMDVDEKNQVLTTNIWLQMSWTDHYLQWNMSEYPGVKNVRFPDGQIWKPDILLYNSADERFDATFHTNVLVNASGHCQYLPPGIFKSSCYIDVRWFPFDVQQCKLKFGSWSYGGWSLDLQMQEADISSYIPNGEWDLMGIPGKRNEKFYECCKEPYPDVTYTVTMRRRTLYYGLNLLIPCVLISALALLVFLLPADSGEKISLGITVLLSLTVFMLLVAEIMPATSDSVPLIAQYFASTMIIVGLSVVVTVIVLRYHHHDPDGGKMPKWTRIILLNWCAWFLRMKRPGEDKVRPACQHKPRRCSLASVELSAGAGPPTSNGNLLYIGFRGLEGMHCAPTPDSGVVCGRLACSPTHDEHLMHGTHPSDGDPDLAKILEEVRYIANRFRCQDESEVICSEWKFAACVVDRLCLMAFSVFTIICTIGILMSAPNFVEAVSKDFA

For CN1CC2CN(c3ccc4oc5ccccc5c(=O)c4c3)CC2C1 (centres unmarked) [A-844606, 2-(5-methyl-hexahydro-pyrrolo[3,4-c]pyrrol-2-yl)-xanthene-9-one], the IC50 (α4β2 nAChRs) is listed as > 30000 nM, the “% Injected dose/g tissue, Blood” value (α7 nAChRs [1]) is listed as 0.91±0.10 % Injected dose/g tissue and the “% Injected dose/g tissue, Cerebellum” value (α7 nAChRs [1]) is listed as 3.62±0.10 % Injected dose/g tissue. For the same compound, the “% Injected dose/g tissue, Cerebral cortex” value (α7 nAChRs [1]) was 4.78±0.19 % Injected dose/g tissue, the “% Injected dose/g tissue, Hippocampus” value (α7 nAChRs [1]) was 4.20±0.55 % Injected dose/g tissue and the “% Injected dose/g tissue, Hypothalamus” value (α7 nAChRs [1]) was 3.50±0.87 % Injected dose/g tissue. The “% Injected dose/g tissue, Medulla oblongata” value (α7 nAChRs [1]) was 4.04±0.19 % Injected dose/g tissue, the “% Injected dose/g tissue, Midbrain” value (α7 nAChRs [1]) was 4.29±0.11 % Injected dose/g tissue and the “% Injected dose/g tissue, Striatum” value (α7 nAChRs [1]) was 3.94±0.89 % Injected dose/g tissue. For the same compound, the “% Injected dose/g tissue, Whole brain” value (α7 nAChRs [1]) was 4.27±0.18 % Injected dose/g tissue and the IC50 (α7 nAChRs [2]) was 11 nM.

Source: paper PMC2813863, “In Vivo Evaluation of α7 Nicotinic Acetylcholine Receptor Agonists [^11C]A-582941 and [^11C]A-844606 in Mice and Conscious Monkeys” (PLoS ONE, 2010)
